Reference: the NIST ThermoML archive (doi:10.1021/acs.jced.9b00171)
± gives the expanded uncertainty stated by the source.

Legend:
[1] = refractive index (Na D-line) (dimensionless); wn = mass fraction of the nth substance listed; details: 101.3 kPa, Liquid, Standard Abbe refractometry
[2] = wn = mass fraction of the nth substance listed; details: 101.3 kPa, Liquid, Oscillating disk viscometry

CNCCO [2-(methylamino)ethanol] + O
Details | refractive index, [1] | viscosity, [2] [mPa·s]
293.15 K, w1 = 0.05 | 1.3421 ± 0.0024 | 1.31 ± 0.31
293.15 K, w1 = 0.1 | 1.3452 ± 0.0024 | 1.68 ± 0.43
293.15 K, w1 = 0.15 | 1.3484 ± 0.0025 | 2.38 ± 0.53
293.15 K, w1 = 0.2 | 1.3522 ± 0.0027 | 2.66 ± 0.63
293.15 K, w1 = 0.25 | 1.3568 ± 0.0029 | 3.4 ± 0.8
293.15 K, w1 = 0.3 | 1.3624 ± 0.003 | 4.22 ± 0.95
298.15 K, w1 = 0.05 | 1.3414 ± 0.0024 | 1.1 ± 0.26
298.15 K, w1 = 0.1 | 1.3444 ± 0.0024 | 1.42 ± 0.35
298.15 K, w1 = 0.15 | 1.3476 ± 0.0025 | 2.02 ± 0.45
298.15 K, w1 = 0.2 | 1.3513 ± 0.0026 | 2.17 ± 0.49
298.15 K, w1 = 0.25 | 1.3558 ± 0.0029 | 2.74 ± 0.65
298.15 K, w1 = 0.3 | 1.3614 ± 0.003 | 3.52 ± 0.82
303.15 K, w1 = 0.05 | 1.3405 ± 0.0024 | 0.99 ± 0.22
303.15 K, w1 = 0.1 | 1.3435 ± 0.0024 | 1.22 ± 0.3
303.15 K, w1 = 0.15 | 1.3467 ± 0.0025 | 1.74 ± 0.39
303.15 K, w1 = 0.2 | 1.3502 ± 0.0026 | 1.83 ± 0.41
303.15 K, w1 = 0.25 | 1.3547 ± 0.0029 | 2.32 ± 0.54
303.15 K, w1 = 0.3 | 1.3602 ± 0.003 | 2.96 ± 0.69
308.15 K, w1 = 0.05 | 1.3396 ± 0.0024 | 0.88 ± 0.19
308.15 K, w1 = 0.1 | 1.3426 ± 0.0024 | 1.05 ± 0.24
308.15 K, w1 = 0.15 | 1.3456 ± 0.0024 | 1.42 ± 0.32
308.15 K, w1 = 0.2 | 1.349 ± 0.0026 | 1.52 ± 0.34
308.15 K, w1 = 0.25 | 1.3534 ± 0.0029 | 1.96 ± 0.46
308.15 K, w1 = 0.3 | 1.3588 ± 0.003 | 2.52 ± 0.58
313.15 K, w1 = 0.05 | 1.3386 ± 0.0024 | 0.79 ± 0.17
313.15 K, w1 = 0.1 | 1.3416 ± 0.0024 | 0.94 ± 0.21
313.15 K, w1 = 0.15 | 1.3445 ± 0.0024 | 1.22 ± 0.27
313.15 K, w1 = 0.2 | 1.3478 ± 0.0026 | 1.32 ± 0.29
313.15 K, w1 = 0.25 | 1.352 ± 0.0028 | 1.71 ± 0.4
313.15 K, w1 = 0.3 | 1.3573 ± 0.003 | 2.2 ± 0.5
318.15 K, w1 = 0.05 | 1.3375 ± 0.0024 | 0.72 ± 0.16
318.15 K, w1 = 0.1 | 1.3405 ± 0.0024 | 0.84 ± 0.19
318.15 K, w1 = 0.15 | 1.3434 ± 0.0024 | 1.04 ± 0.23
318.15 K, w1 = 0.2 | 1.3465 ± 0.0025 | 1.19 ± 0.26
318.15 K, w1 = 0.25 | 1.3505 ± 0.0028 | 1.49 ± 0.34
318.15 K, w1 = 0.3 | 1.3558 ± 0.003 | 1.92 ± 0.44
323.15 K, w1 = 0.05 | 1.3364 ± 0.0024 | 0.65 ± 0.14
323.15 K, w1 = 0.1 | 1.3394 ± 0.0024 | 0.75 ± 0.17
323.15 K, w1 = 0.15 | 1.3421 ± 0.0024 | 0.93 ± 0.2
323.15 K, w1 = 0.2 | 1.3451 ± 0.0025 | 1.06 ± 0.23
323.15 K, w1 = 0.25 | 1.349 ± 0.0028 | 1.29 ± 0.3
323.15 K, w1 = 0.3 | 1.3542 ± 0.003 | 1.65 ± 0.38
328.15 K, w1 = 0.05 | 1.3352 ± 0.0024 | 0.58 ± 0.13
328.15 K, w1 = 0.1 | 1.3381 ± 0.0024 | 0.67 ± 0.15
328.15 K, w1 = 0.15 | 1.3406 ± 0.0024 | 0.83 ± 0.18
328.15 K, w1 = 0.2 | 1.3436 ± 0.0025 | 0.94 ± 0.2
328.15 K, w1 = 0.25 | 1.3474 ± 0.0028 | 1.12 ± 0.25
328.15 K, w1 = 0.3 | 1.3524 ± 0.0029 | 1.41 ± 0.32
333.15 K, w1 = 0.05 | 1.334 ± 0.0024 | 0.52 ± 0.11
333.15 K, w1 = 0.1 | 1.3368 ± 0.0023 | 0.6 ± 0.13
333.15 K, w1 = 0.15 | 1.3391 ± 0.0023 | 0.74 ± 0.16
333.15 K, w1 = 0.2 | 1.342 ± 0.0025 | 0.83 ± 0.18
333.15 K, w1 = 0.25 | 1.3456 ± 0.0027 | 0.99 ± 0.22
333.15 K, w1 = 0.3 | 1.3504 ± 0.0029 | 1.2 ± 0.27
